The nature of data set [1]: Multiple-dose (steady-state) pharmacokinetics of concomitant cannabidiol and kratom product. In kind it is in vivo, male Sprague-Dawley rats. To be noted: mean ± SEM; for Accumulation Index / Fluctuation / concentration at 5 days / AUC(0-inf) / AUC / Cmax at 5 days: 5-day q12 h oral 25 mg/kg cannabidiol and kratom product (Eq. 4.7 mg/kg mitragynine); for AUC0–∞/dose / CL/F at 5 days / Vd/F at 5 days: Multiple-Dose; for AUC0–∞/dose: dose-normalized; for concentration at 5 days / CL/F at 5 days / Vd/F at 5 days / AUC(0-inf) / AUC / Cmax at 5 days: male, Sprague-Dawley, rat; for concentration at 5 days / CL/F at 5 days / Vd/F at 5 days / AUC(0-inf) / AUC: plasma; for concentration at 5 days: oral; for CL/F at 5 days / Vd/F at 5 days: po; for CL/F at 5 days: read-out: CL/F (apparent oral clearance) (converted); for Vd/F at 5 days: read-out: V/F (apparent volume of distribution); for AUC(0-inf): from time 0 (96 h) extrapolated to infinity; for AUC: over the dosing interval (12 h); for Cmax at 5 days: maximum plasma concentration at steady-state. On the procedure: (§1) Male Sprague-Dawley rats (weight 250 ± 25 g) were obtained from Envigo (Indianapolis, IN, USA) with indwelling jugular vein catheters. Animals were acclimated for ≥72 h in a temperature- and humidity-controlled vivarium on a 12 h light/dark cycle. All studies were approved by the University of Florida’s Institutional Animal Care and Use Committee (IACUC) and carried out in accordance with Association for Assessment and Accreditation of Laboratory Animal Care International (AAALAC) and National Institute of Health (NIH) guidelines. In the single-dose studies, rats were fasted for 10 h prior to dosing and an additional 2 h post-dose.
(§2) For the single-dose study, rats were pretreated with 50 mg/kg cannabidiol by oral gavage and, after 30 min, were dosed with 0.8 mL/kg OPMS Gold solution. A period of 30 min was observed between doses to reduce the likelihood of interactions between the formulations in the stomach. Rats were connected to an automatic blood collection system (BASi, West Lafayette, IN, USA), and blood samples were taken pre-kratom product dose and 0.08, 0.17, 0.25, 0.5, 1, 2, 3, 4, 6, 8, 12, 18, 24, 30, 36, 42, and 48 h after kratom product dose administration. For the multiple-dose study, rats were pretreated with 25 mg/kg cannabidiol and, after 30 min, were dosed with 0.4 mL/kg OPMS Gold solution every 12 h (0900 and 2100) for a period of 4 days. Blood samples were taken prior to the 0900 dose (24, 48, 72, 96 h). […] Plasma was separated from blood by centrifugation at 850× g for 10 min at 4 °C. Samples were stored at −20 °C until analysis.
(§3) Standards were prepared by adding 2.0 μL of CS or QC stock to 18 μL of blank rat plasma. This generated eight calibration standards (5–500 ng/mL) and four QC standards (5, 8, 200, and 400 ng/mL). After spiking, the standards were vortex-mixed for 5 min at 650 rpm. Analytes were precipitated with 80 μL methanol acidified with 0.05% formic acid containing 25 ng/mL IS-1 and IS-2 (Quenching Solution; QS). Samples were transferred to a 96-well filter plate and centrifuged at 850× g for 2 min at 4 °C. Study samples were prepared in the same manner by aliquoting 20 μL and adding 80 μL QS prior to vortex mixing and filtration.
(§4) Samples were analyzed using previously validated ultraperformance liquid chromatography-tandem mass spectrometry (UPLC-MS/MS) methods for the quantification of cannabinoids and alkaloids in rat plasma. Both methods used a Waters Acquity I-Class UPLC coupled to a Xevo TQ-S micro mass spectrometer (Waters, Milford, MA, USA). The source gas was nitrogen, and the collision gas was argon. The autosampler was maintained at 10 °C.
(§5) For the cannabinoid bioanalytical method, a 1.7 µm, 2.1 x 100 mm C18 BEH column was utilized with a pre-column of the same chemistry (Waters, Milford, MA, USA) held at 40 °C. […] Cannabidiol was detected in positive electrospray ionization mode using multiple reaction monitoring.
(§6) For the peak separations of kratom alkaloids required for quantification, a 1.7 µm, […] × 100 mm C18 BEH column with a pre-column of the same chemistry (Waters, Milford, MA, USA) was utilized and held at 50 °C throughout the analysis. A gradient elution was used with mobile phase of aqueous ammonium acetate buffer [2.5 mM, pH 3.5 (A)] and acetonitrile (B). The gradient was held at 90% A for 1 min and decreased to 60% by 10 min. From 10 to 10.5 min, the percent of A was decreased sharply to 30% and was then set to initial conditions from 10.5 to 11 min to re-equilibrate the column. The alkaloids were detected in positive electrospray ionization mode using multiple reaction monitoring.
The TargetLynx™ application of MassLynx™ was used for data processing and quantification of the UPLC-MS/MS data (Waters, Milford, MA, USA). Phoenix Version 6.4 (Certara, Princeton, NJ, USA) was used to perform a non-compartmental analysis of concentration–time data. GraphPad Prism Version 8 (GraphPad Software, San Diego, CA, USA) was used to generate all figures.

A short description of data set [2]: Single-dose pharmacokinetics of concomitant cannabidiol product and kratom product. In kind it is in vivo, male Sprague-Dawley rats. The settings on record: for AUC0–∞/dose / CL/F / Vd/F: Single-Dose; for AUC0–∞/dose: dose-normalized; for CL/F / Vd/F: plasma; for CL/F: read-out: CL/F (apparent oral clearance) (converted); for Vd/F: read-out: V/F (apparent volume of distribution); for AUC(0-t): read-out: AUC0–24. The protocol: as §1, §2, §3, §4, §5, §6
The TargetLynx™ application of MassLynx™ was used for data processing and quantification of the UPLC-MS/MS data (Waters, Milford, MA, USA). Phoenix Version 6.4 (Certara, Princeton, NJ, USA) was used to perform a non-compartmental analysis of concentration–time data. GraphPad Prism Version 8 (GraphPad Software, San Diego, CA, USA) was used to generate all figures. […]

On the set-up of data set [3]: method as in PMID 33620222. To be noted: n = 4, mean ± SEM, cited from earlier work.
Data set [4] is described as follows: Single oral dose pharmacokinetics of cannabidiol product alone. In kind it is in vivo, male Sprague-Dawley rats. The settings on record: male, Sprague-Dawley, rat, cannabidiol in plasma, single oral dose of cannabidiol product alone (50 mg/kg), n = 4, mean ± SEM.
Data set [5] can be described thus: Single oral dose pharmacokinetics of kratom product alone (control data from Kamble et al.). To be noted: without cannabidiol.
The mark [6] stands for this setting: average plasma concentration at steady-state, read-out: Cavg,ss.
[7] abbreviates: minimum plasma concentration at steady-state, read-out: Cmin,ss.
Setting [8] is: male, Sprague-Dawley, rat, po, mean ± SEM.
The mark [9] stands for this setting: male, Sprague-Dawley, rat, mitragynine in plasma, single concomitant oral dose of cannabidiol product (50 mg/kg) and kratom product (9.4 mg/kg mitragynine), n = 5, mean ± SEM.
The mark [10] stands for this setting: mitragynine in plasma, single oral dose of kratom product alone (9.6 mg/kg mitragynine).
The mark [11] stands for this setting: cannabidiol, cannabidiol plus kratom product vs cannabidiol product alone, single dose.
Setting [12] is: male, Sprague-Dawley, rat, cannabidiol in plasma, single concomitant oral dose of cannabidiol product (50 mg/kg) and kratom product (9.4 mg/kg mitragynine), n = 5, mean ± SEM.
Setting [13] is: male, Sprague-Dawley, rat, po, minor kratom alkaloid/metabolite in plasma, single concomitant dose of cannabidiol and kratom product, n = 5, mean ± SEM.
Setting [14] is: male, Sprague-Dawley, rat, po, minor kratom alkaloid/metabolite in plasma, single concomitant dose of cannabidiol and kratom product, n = 5, mean ± SEM, read-out: Cmax.
Setting [15] is: minor kratom alkaloid/metabolite in plasma, single oral dose of kratom product alone.
[16] abbreviates: minor kratom alkaloid/metabolite in plasma, single concomitant dose of cannabidiol and kratom product, n = 5, mean ± SEM.

Like-named read-outs stand apart in the source and are kept apart here.

One may read the AUC(0-inf) as the area under the concentration-time curve extrapolated to infinity. As usually defined, the AUC is concentration integrated over time. Higher therefore signals more exposure. Broadly, the Cmax is the maximum level reached in the sampled fluid or tissue. A word on the Tmax: it is the time from dosing to the highest level. As for `CC[C@@H]1CN2CCc3c([nH]c4cccc(OC)c34)[C@@H]2C[C@@H]1/C(=C\OC)C(=O)OC` [Mitragynine, mitragynine], in data set [1], the “Accumulation Index” value came to 1.4 ± 0.1, the Fluctuation stood at 90.0 ± 11.3%, the “AUC0–∞/dose” value is 605.8 ± 153.1 ng·h/mL/mg/kg and the CL/F at 5 days is 51.7 mL/min/kg. For the same molecule, in data set [1], the Vd/F at 5 days amounted to 28.7 ± 3.7 L/kg, the AUC(0-inf) was 2910 ± 735 ng·h/mL, the AUC stood at 1810 ± 417 ng·h/mL and the concentration peaked (Cmax at 5 days) at 218 ± 40 ng/mL. Further, in data set [1] (listed as mitragynine), the Fluctuation is about 100%. Further, in data set [1] (setting [6]), the concentration at 5 days is 151 ± 34.7 ng/mL. For the same molecule, the concentration at 5 days in data set [1] (setting [7]) worked out at 91.1 ± 24.9 ng/mL. Moreover, in data set [2] (mean ± SEM), the “AUC0–∞/dose” value is 578.6 ± 187.9 ng·h/mL/mg/kg. Moreover, in data set [2] (setting [8]), the CL/F was 38.3 mL/min/kg and the Vd/F amounted to 25.8 ± 7.5 L/kg. In data set [2] (setting [9]), the Tmax was 17 ± 4.6 h and the AUC(0-t) worked out at 5350 ± 1150 ng·h/mL. In data set [2] (male, Sprague-Dawley, rat, mitragynine in plasma, single concomitant oral dose of cannabidiol product (50 mg/kg) and kratom product (9.4 mg/kg mitragynine), n = 5, mean ± SEM, read-out: Cmax), the Cmax came to 253 ± 68.3 ng/mL. Also, in data set [3] (setting [10]), the “AUC0–24” value is 1306.8 ± 126.1 ng·h/mL, the Cmax is listed as 111.9 ± 15.6 ng/mL and the Tmax was 3.1 ± 1.7 h.

On to `C=C(C)[C@@H]1CCC(C)=C[C@H]1c1c(O)cc(CCCCC)cc1O` [Cannabidiol], for which, in data set [1], the “Accumulation Index” value is listed as 1.8 ± 0.0, the Fluctuation was determined as 219.0 ± 42.7%, the “AUC0–∞/dose” value was found to be 140.8 ± 34.0 ng·h/mL/mg/kg and the CL/F at 5 days was 217 mL/min/kg. In data set [1], the Vd/F at 5 days is 192 ± 42.1 L/kg, the AUC(0-inf) was 3520 ± 851 ng·h/mL, the AUC was 2450 ± 615 ng·h/mL and the Cmax at 5 days was 489 ± 96.2 ng/mL. Moreover, in data set [1] (setting [6]), the concentration at 5 days is 204 ± 51.3 ng/mL. Also, in data set [1] (setting [7]), the concentration at 5 days turned out to be 80.9 ± 23.7 ng/mL. In addition, in data set [4], the highest level (Cmax) was 589 ± 38.3 ng/mL and the Tmax was 3.8 ± 1.5 h. In addition, the AUC(0-t) in data set [4] (read-out: AUC0–24) came out at 4400 ± 319 ng·h/mL. The “AUC0–∞/dose” value in data set [2] (mean ± SEM) is 97.8 ± 18.5 ng·h/mL/mg/kg. In data set [2] (setting [11]), the “AUC0–24 Fold Change (90% CI Ratio)” value is 1.0 (0.8, 1.1) and the “Cmax Fold Change (90% CI Ratio)” value is recorded as 0.8 (0.7, 0.9). The “range of 90% confidence interval values of AUC0–24 fold change” value in data set [2] (cannabidiol, coadministration with kratom vs cannabidiol alone, single dose) is 0.8–1.1. In data set [2] (setting [8]), the CL/F is 192 mL/min/kg and the Vd/F turned out to be 164 ± 26.3 L/kg. Further, in data set [2] (setting [12]), the Tmax is 6.3 ± 1 h and the AUC(0-t) came to 4180 ± 614 ng·h/mL. In data set [2] (male, Sprague-Dawley, rat, cannabidiol in plasma, single concomitant oral dose of cannabidiol product (50 mg/kg) and kratom product (9.4 mg/kg mitragynine), n = 5, mean ± SEM, read-out: Cmax), the peak concentration (Cmax) was found to be 491 ± 69.2 ng/mL.

Turning to `CC[C@@H]1CN2CCc3c([nH]c4cccc(OC)c34)[C@H]2C[C@@H]1/C(=C\OC)C(=O)OC` [Speciociliatine, speciociliatine], in data set [2] (setting [13]), the time of peak concentration (Tmax) amounted to 17 ± 5.9 h and the AUC(0-t) came to 990 ± 93.7 ng·h/mL. In addition, in data set [2] (setting [14]), the Cmax turned out to be 68.1 ± 5.9 ng/mL. In data set [3] (setting [15]), the “AUC0–24” value is 222.7 ± 22.2 ng·h/mL, the Cmax is given as 23.8 ± 1.4 ng/mL and the Tmax is on record as 3.2 ± 1.6 h.

Regarding `CC[C@@H]1CN2CC[C@@]3(O)C(=Nc4cccc(OC)c43)[C@@H]2C[C@@H]1/C(=C\OC)C(=O)OC` [7-hydroxymitragynine], the “metabolite to parent (mitragynine) exposure ratio percent” value in data set [5] was found to be 3.1%; in data set [2] (with cannabidiol, single concomitant dose of cannabidiol and kratom product) it was 3.5%. Further, the “AUC0–24” value in data set [2] (setting [16]) is 189.2 ± 27.7 ng·h/mL; in data set [3] (setting [15]) it was 41.0 ± 7.6 ng·h/mL. The figures for the Cmax in data set [2] (setting [16]) and in data set [3] (setting [15]) were 17.5 ± 2.3 ng/mL and 4.0 ± 0.6 ng/mL, respectively. For the same molecule, the Tmax in data set [3] (setting [15]) was 3.1 ± 1.7 h.

For `C=C[C@H]1CN2CCc3c([nH]c4cccc(OC)c34)[C@@H]2C[C@@H]1/C(=C\OC)C(=O)OC` [Paynantheine, paynantheine], the Tmax in data set [2] (setting [13]) is 16.2 ± 4.9 h; in data set [3] (setting [15]) it was 0.08 ± 0.0 h. In addition, the AUC(0-t) in data set [2] (setting [13]) amounted to 290 ± 96.4 ng·h/mL. Further, the Cmax is 19.8 ± 5.8 ng/mL in data set [2] (setting [14]) and 3.0 ± 1.7 ng/mL in data set [3] (setting [15]).

(Values after paper PMC10974275, “Pharmacokinetic Interaction of Kratom and Cannabidiol in Male Rats” (Pharmaceutics, 2024).)
